Reference: patent US9290745B2, “Luciferase biosensor” (PROMEGA CORPORATION, priority 2003, dated 2016)

Target: T1, Luc2-CaM fusion (UniProt P08659+P0DP23, D3I/E2D/N119G/N50D)
T1 construct: made in house; host or cells: cell-free: TnT Coupled Reticulocyte Lysate System
Test: C-terminal modulated luciferase fusion system (calmodulin)
Assay type: biochemical, human

| SMILES | effect on EGTA-induced increase in luminescence (1 μl 100 mM CaCl2 added after EGTA) | increase of luminescence (EGTA final concentration 3 mM, Luc2-CaM TnT lysate in LAR) |
| --- | --- | --- |
| [Ca+2].[Cl-].[Cl-] [Ca^+2, CaCl2] | can be reversed |  |
| O=C(O)CN(CCOCCOCCN(CC(=O)O)CC(=O)O)CC(=O)O [EGTA] |  | about 9 fold |
